Literature values in PubChem BioAssay AID1259409 (Chemical Carcinogenesis Research Information System (CCRIS), 2018).

System: rodent chemically induced tumor inhibition, incidence and multiplicity
Test: CCRIS tumor inhibitor studies
Conditions: Dose [Inhibitor]: 0, Promoter: NONE USED

Structure (SMILES): S=C=NCCc1ccccc1
- tumour outcome (control, treated, inhibition, significance) (Carcinogen: BENZO[A]PYRENE, 50-32-8, 12 MG/KG/D FOR 6 CONSECUTIVE DAYS (STUDY DURATION: 7 MO), Route [Inhibitor]: GAVAGE, Species: MOUSE, Strain/Sex: STRAIN-A/FEMALE, Target Tissue: Type of Lesion: LUNG: TUMOR, Dose [Carcinogen]: 100 MG/KG ONCE AFTER FOURTH INHIBITOR DOSE): 100%, 100%, 0%, not significant
- tumour outcome (control, treated, inhibition, significance) (Carcinogen: BENZO[A]PYRENE, 50-32-8, 12 MG/KG/D FOR 6 CONSECUTIVE DAYS (STUDY DURATION: 7 MO), Route [Inhibitor]: GAVAGE, Species: MOUSE, Strain/Sex: STRAIN-A/MALE, Target Tissue: Type of Lesion: LUNG: TUMOR, Dose [Carcinogen]: 100 MG/KG ONCE AFTER FOURTH INHIBITOR DOSE): 100%, 100%, 0%, not significant
- tumour outcome (control, treated, inhibition, significance) (Carcinogen: BENZO[A]PYRENE, 50-32-8, 41 MG/KG/D FOR 6 CONSECUTIVE DAYS (STUDY DURATION: 7 MO), Route [Inhibitor]: GAVAGE, Species: MOUSE, Strain/Sex: STRAIN-A/FEMALE, Target Tissue: Type of Lesion: LUNG: TUMOR, Dose [Carcinogen]: 100 MG/KG ONCE AFTER FOURTH INHIBITOR DOSE): 100%, 100%, 0%, not significant
- tumour outcome (control, treated, inhibition, significance) (Carcinogen: BENZO[A]PYRENE, 50-32-8, 41 MG/KG/D FOR 6 CONSECUTIVE DAYS (STUDY DURATION: 7 MO), Route [Inhibitor]: GAVAGE, Species: MOUSE, Strain/Sex: STRAIN-A/MALE, Target Tissue: Type of Lesion: LUNG: TUMOR, Dose [Carcinogen]: 100 MG/KG ONCE AFTER FOURTH INHIBITOR DOSE): 100%, 95%, 5%, not calculated
- tumour outcome (control, treated, inhibition, significance) (Carcinogen: BENZO[A]PYRENE, 50-32-8, 82 MG/KG/D FOR 6 CONSECUTIVE DAYS (STUDY DURATION: 7 MO), Route [Inhibitor]: GAVAGE, Species: MOUSE, Strain/Sex: STRAIN-A/FEMALE, Target Tissue: Type of Lesion: LUNG: TUMOR, Dose [Carcinogen]: 100 MG/KG ONCE AFTER FOURTH INHIBITOR DOSE): 100%, 100%, 0%, not significant
- tumour outcome (control, treated, inhibition, significance) (Carcinogen: BENZO[A]PYRENE, 50-32-8, 82 MG/KG/D FOR 6 CONSECUTIVE DAYS (STUDY DURATION: 7 MO), Route [Inhibitor]: GAVAGE, Species: MOUSE, Strain/Sex: STRAIN-A/MALE, Target Tissue: Type of Lesion: LUNG: TUMOR, Dose [Carcinogen]: 100 MG/KG ONCE AFTER FOURTH INHIBITION DOSE): 100%, 100%, 0%, not significant
- tumour outcome (control, treated, inhibition, significance) (Carcinogen: BENZO[A]PYRENE, 50-32-8, 122 MG/KG/D FOR 6 CONSECUTIVE DAYS (STUDY DURATION: 7 MO), Route [Inhibitor]: GAVAGE, Species: MOUSE, Strain/Sex: STRAIN-A/FEMALE, Target Tissue: Type of Lesion: LUNG: TUMOR, Dose [Carcinogen]: 100 MG/KG ONCE AFTER FOURTH INHIBITOR DOSE): 100%, 90%, 10%, not significant
- tumour outcome (control, treated, inhibition, significance) (Carcinogen: BENZO[A]PYRENE, 50-32-8, 122 MG/KG/D FOR 6 CONSECUTIVE DAYS (STUDY DURATION: 7 MO), Route [Inhibitor]: GAVAGE, Species: MOUSE, Strain/Sex: STRAIN-A/MALE, Target Tissue: Type of Lesion: LUNG: TUMOR, Dose [Carcinogen]: 100 MG/KG ONCE AFTER FOURTH INHIBITOR DOSE): 100%, 95%, 5%, not significant
- tumour outcome (control, treated, inhibition, significance) (Carcinogen: DIETHYLNITROSAMINE, 55-18-5, 82 MG/KG BW BY INTRAPERITONEAL INJECTION ON DAYS 13, 14 AND 15 OF AGE THEN 0.65 G/KG DIET FROM 21 TO 161 DAYS OF AGE, Route [Inhibitor]: INTRAPERITONEAL, ORAL, Species: MOUSE, Strain/Sex: C3H/MALE, Target Tissue: Type of Lesion: LIVER: ADENOMA, Dose [Carcinogen]: 4 MG/KG IN TRICAPRYLIN ONCE ON DAY 15 OF AGE): 100%, 89%, 11%, not significant
- tumour outcome (control, treated, inhibition, significance) (Carcinogen: DIETHYLNITROSAMINE, 55-18-5, N-METHYL-N-NITROSOUREA, 684-93-5, N-BUTYL-N-(4-HYDROXYBUTYL)NITROSAMINE, 3817-11-6, DIMETHY, Carcinogen: DIETHYLNITROSAMINE, 55-18-5, N-METHYL-N-NITROSOUREA, 684-93-5, N-BUTYL-N-(4-HYDROXYBUTYL)NITROSAMINE, 3817-11-6, DIMETHY, 0.1% IN THE DIET FOR 24 WK BEGINNING 1 DAY POST CARCINOGEN TREATMENT (STUDY DURATION: 28 WK), Route [Inhibitor]: ORAL, Species: RAT, Strain/Sex: F344/MALE, Target Tissue: Type of Lesion: LARGE INTESTINE: ADENOMA, Dose [Carcinogen]: 100 MG/KG BW DEN ONCE FOLLOWED BY 20 MG/KG BW MNU 4 TIMES AND 0.05% BBN IN DRINKING WATER DURING FIRST 2 WK THEN 40 MG/K): 27%, 7%, 74%, not significant
- tumour outcome (control, treated, inhibition, significance) (Carcinogen: DIETHYLNITROSAMINE, 55-18-5, N-METHYL-N-NITROSOUREA, 684-93-5, N-BUTYL-N-(4-HYDROXYBUTYL)NITROSAMINE, 3817-11-6, DIMETHY, Carcinogen: DIETHYLNITROSAMINE, 55-18-5, N-METHYL-N-NITROSOUREA, 684-93-5, N-BUTYL-N-(4-HYDROXYBUTYL)NITROSAMINE, 3817-11-6, DIMETHY, 0.1% IN THE DIET FOR 24 WK BEGINNING 1 DAY POST CARCINOGEN TREATMENT (STUDY DURATION: 28 WK), Route [Inhibitor]: ORAL, Species: RAT, Strain/Sex: F344/MALE, Target Tissue: Type of Lesion: LARGE INTESTINE: CARCINOMA, Dose [Carcinogen]: 100 MG/KG BW DEN ONCE FOLLOWED BY 20 MG/KG BW MNU 4 TIMES AND 0.05% BBN IN DRINKING WATER DURING FIRST 2 WK THEN 40 MG/K): 7%, 0%, 100%, not significant
- tumour outcome (control, treated, inhibition, significance) (Carcinogen: DIETHYLNITROSAMINE, 55-18-5, N-METHYL-N-NITROSOUREA, 684-93-5, N-BUTYL-N-(4-HYDROXYBUTYL)NITROSAMINE, 3817-11-6, DIMETHY, Carcinogen: DIETHYLNITROSAMINE, 55-18-5, N-METHYL-N-NITROSOUREA, 684-93-5, N-BUTYL-N-(4-HYDROXYBUTYL)NITROSAMINE, 3817-11-6, DIMETHY, 0.1% IN THE DIET FOR 24 WK BEGINNING 1 DAY POST CARCINOGEN TREATMENT (STUDY DURATION: 28 WK), Route [Inhibitor]: ORAL, Species: RAT, Strain/Sex: F344/MALE, Target Tissue: Type of Lesion: SMALL INTESTINE: ADENOMA, Dose [Carcinogen]: 100 MG/KG BW DEN ONCE FOLLOWED BY 20 MG/KG BW MNU 4 TIMES AND 0.05% BBN IN DRINKING WATER DURING FIRST 2 WK THEN 40 MG/K): 33%, 50%, -52%, not significant
- tumour outcome (control, treated, inhibition, significance) (Carcinogen: DIETHYLNITROSAMINE, 55-18-5, N-METHYL-N-NITROSOUREA, 684-93-5, N-BUTYL-N-(4-HYDROXYBUTYL)NITROSAMINE, 3817-11-6, DIMETHY, Carcinogen: DIETHYLNITROSAMINE, 55-18-5, N-METHYL-N-NITROSOUREA, 684-93-5, N-BUTYL-N-(4-HYDROXYBUTYL)NITROSAMINE, 3817-11-6, DIMETHY, 0.1% IN THE DIET FOR 24 WK BEGINNING 1 DAY POST CARCINOGEN TREATMENT (STUDY DURATION: 28 WK), Route [Inhibitor]: ORAL, Species: RAT, Strain/Sex: F344/MALE, Target Tissue: Type of Lesion: SMALL INTESTINE: CARCINOMA, Dose [Carcinogen]: 100 MG/KG BW DEN ONCE FOLLOWED BY 20 MG/KG BW MNU 4 TIMES AND 0.05% BBN IN DRINKING WATER DURING FIRST 2 WK THEN 40 MG/K): 7%, 14%, -100%, not significant
- tumour outcome (control, treated, inhibition, significance) (Carcinogen: DIETHYLNITROSAMINE, 55-18-5, N-METHYL-N-NITROSOUREA, 684-93-5, N-BUTYL-N-(4-HYDROXYBUTYL)NITROSAMINE, 3817-11-6, DIMETHY, Carcinogen: DIETHYLNITROSAMINE, 55-18-5, N-METHYL-N-NITROSOUREA, 684-93-5, N-BUTYL-N-(4-HYDROXYBUTYL)NITROSAMINE, 3817-11-6, DIMETHY, 0.1% IN THE DIET FOR 24 WK BEGINNING 1 DAY POST CARCINOGEN TREATMENT (STUDY DURATION: 28 WK), Route [Inhibitor]: ORAL, Species: RAT, Strain/Sex: F344/MALE, Target Tissue: Type of Lesion: THYROID: CARCINOMA, Dose [Carcinogen]: 100 MG/KG BW DEN ONCE FOLLOWED BY 20 MG/KG BW MNU 4 TIMES AND 0.05% BBN IN DRINKING WATER DURING FIRST 2 WK THEN 40 MG/K): 7%, 8%, -14%, not significant
- tumour outcome (control, treated, inhibition, significance) (Carcinogen: DIETHYLNITROSAMINE, 55-18-5, N-METHYL-N-NITROSOUREA, 684-93-5, N-BUTYL-N-(4-HYDROXYBUTYL)NITROSAMINE, 3817-11-6, DIMETHY, Carcinogen: DIETHYLNITROSAMINE, 55-18-5, N-METHYL-N-NITROSOUREA, 684-93-5, N-BUTYL-N-(4-HYDROXYBUTYL)NITROSAMINE, 3817-11-6, DIMETHY, 0.1% IN THE DIET FOR 24 WK BEGINNING 1 DAY POST CARCINOGEN TREATMENT (STUDY DURATION: 28 WK), Route [Inhibitor]: ORAL, Species: RAT, Strain/Sex: F344/MALE, Target Tissue: Type of Lesion: URINARY BLADDER: PAPILLOMA, Dose [Carcinogen]: 100 MG/KG BW DEN ONCE FOLLOWED BY 20 MG/KG BW MNU 4 TIMES AND 0.05% BBN IN DRINKING WATER DURING FIRST 2 WK THEN 40 MG/K): 7%, 33%, -371%, not significant
- tumour outcome (control, treated, inhibition, significance) (Carcinogen: DIETHYLNITROSAMINE, 55-18-5, N-METHYL-N-NITROSOUREA, 684-93-5, N-BUTYL-N-(4-HYDROXYBUTYL)NITROSAMINE, 3817-11-6, DIMETHY, Carcinogen: DIETHYLNITROSAMINE, 55-18-5, N-METHYL-N-NITROSOUREA, 684-93-5, N-BUTYL-N-(4-HYDROXYBUTYL)NITROSAMINE, 3817-11-6, DIMETHY, 0.1% IN THE DIET FOR 24 WK BEGINNING 1 WK P0ST CARCINOGEN TREATMENT (STUDY DURATION: 28 WK), Route [Inhibitor]: ORAL, Species: RAT, Strain/Sex: F344/MALE, Target Tissue: Type of Lesion: URINARY BLADDER: CARCINOMA, Dose [Carcinogen]: 100 MG/KG BW DEN ONCE FOLLOWED BY 20 MG/KG BW MNU 4 TIMES AND 0.05% BBN IN DRINKING WATER DURING FIRST 2 WK THEN 40 MG/K): 7%, 33%, -371%, not significant
